Where two headings read alike, the source gives them in different places. Each block holds one compound with its values, some of them ahead of it.
Assays:
Assay type in all cases: physicochemical
[1] = Solubility study, visually estimated by dosing solvent aliquots into 10.0 mg API; conditions: thermodynamic from solid
Procedure: Solubility was assessed in an array of diverse solvents in order to facilitate the selection of solvent systems and corresponding dosing strategies for the subsequent crystal-form screening experiments. The solubility of Form A of Formula (I) was visually estimated in 12 solvents at RT, and if applicable, at 40° C. by dosing small aliquots of the solvent into a fixed amount of the API (10.0 mg) until the dissolution point or a maximum volume of 1.8 mL was reached.

[2] = Relative stability (ripening) study of crystal forms at various water activity levels
Procedure: Relative stability studies were conducted at 25° C. to determine thermodynamic crystal stability at various water activity levels ranging from aw=0 to aw=0.94. Both non-solvated forms (Forms A and D) and hydrate forms (Form C and E) were ripened during the study.
Saturated suspensions of the Formula (I) were prepared by stirring excess API in the specified solvent system. The suspension was stirred overnight at 25° C. A clarifying filtration was performed and the filtrate was added to a 2 mL vial containing seeds or small quantities of the relevant forms. The resulting suspensions were stirred at 25° C. for seven days. The solids were isolated, air-dried for 45 minutes, and analyzed by FTIR.

[3] = Particle size distribution after jet milling, laser diffraction dry particle size analyzer; conditions: crystalline Form A after fluidized bed opposed jet milling
Procedure: 21.98 kg of crystalline Form A Formula (I) was processed in a fluidized bed opposed jet mill (Model number 100AFG; Hosokawa Micron) at a feed rate of 8 kg/h under nitrogen at 0.6 MPa and 15,000 rpm. After milling, 20.9 kg ([…]) was collected and analyzed by laser diffraction dry particle size analyzer (HELOS&RODOS).

- solubility ([1]; organic solvent or mixture, DCM, 40° C., read-out: Solubility at 40° C.): < 6000 µg/mL
- solubility ([1]; organic solvent or mixture, DCM, RT, read-out: Solubility at RT): < 6000 µg/mL
- solubility ([1]; organic solvent or mixture, EtOAc, 40° C., read-out: Solubility at 40° C.): < 6000 µg/mL
- solubility ([1]; organic solvent or mixture, EtOAc, RT, read-out: Solubility at RT): < 6000 µg/mL
- solubility ([1]; organic solvent or mixture, IPA, 40° C., read-out: Solubility at 40° C.): < 6000 µg/mL
- solubility ([1]; organic solvent or mixture, IPA, RT, read-out: Solubility at RT): < 6000 µg/mL
- solubility ([1]; organic solvent or mixture, IPA:water (9:1), 40° C., read-out: Solubility at 40° C.): < 6000 µg/mL
- solubility ([1]; organic solvent or mixture, IPA:water (9:1), RT, read-out: Solubility at RT): < 6000 µg/mL
- solubility ([1]; organic solvent or mixture, IPE, 40° C., read-out: Solubility at 40° C.): < 6000 µg/mL
- solubility ([1]; organic solvent or mixture, IPE, RT, read-out: Solubility at RT): < 6000 µg/mL
- solubility ([1]; organic solvent or mixture, MTBE, 40° C., read-out: Solubility at 40° C.): < 6000 µg/mL
- solubility ([1]; organic solvent or mixture, MTBE, RT, read-out: Solubility at RT): < 6000 µg/mL
- solubility ([1]; organic solvent or mixture, MeCN, 40° C., read-out: Solubility at 40° C.): < 6000 µg/mL
- solubility ([1]; organic solvent or mixture, MeCN, RT, read-out: Solubility at RT): < 6000 µg/mL
- solubility ([1]; organic solvent or mixture, MeOH, 40° C., read-out: Solubility at 40° C.): < 7000 µg/mL
- solubility ([1]; organic solvent or mixture, MeOH, RT, read-out: Solubility at RT): < 7000 µg/mL
- solubility ([1]; organic solvent or mixture, THF, 40° C., read-out: Solubility at 40° C.): < 6000 µg/mL
- solubility ([1]; organic solvent or mixture, THF, RT, read-out: Solubility at RT): < 6000 µg/mL
- solubility ([1]; organic solvent or mixture, Toluene, 40° C., read-out: Solubility at 40° C.): < 7000 µg/mL
- solubility ([1]; organic solvent or mixture, Toluene, RT, read-out: Solubility at RT): < 7000 µg/mL
- solubility ([1]; Water, 40° C., read-out: Solubility at 40° C.): < 6000 µg/mL
- solubility ([1]; Water, RT, read-out: Solubility at RT): < 6000 µg/mL
- Crystal form remaining after the ripening study ([2]; all solvent systems, 25° C., seven days, FTIR): the only crystal form remaining
- Relative stability among crystalline forms of Formula (I) ([2]; confirmed in ripening studies): the most stable crystalline form
Structure (SMILES): O=C(O)c1nc2ccccc2n([C@H]2C[C@H]3CCC[C@@H](C2)N3C2CC3CCCC(C3)C2)c1=O (stereo partly shown) [Form A]

- solubility ([1]; all solvents of Table 3 other than DMSO, organic solvent or mixture, read-out: Solubility (low) in all other solvents evaluated): ≤ 7000 µg/mL
- solubility ([1]; organic solvent or mixture, DMSO, RT, read-out: Solubility at RT): 21000 to 52000 µg/mL
- D10 [3]: 0.63 μm
- D30 [3]: 1.36 μm
- D50 [3]: 2.29 μm
- D70 [3]: 3.57 μm
- D90 [3]: 5.8 μm
Structure (SMILES): O=C(O)c1nc2ccccc2n([C@H]2C[C@H]3CCC[C@@H](C2)N3C2CC3CCCC(C3)C2)c1=O (stereo partly shown) [Formula (I)]
